22 compounds from patent US8324227B2, “Thieno[2,3-D]-pyrimidin-4(3H)-one compounds with antifungal properties and process thereof” (FDC Limited, priority 2008, dated 2012) can be followed below.

Common to all, as to experiment: Antifungal susceptibility, MIC by broth macro-dilution method
Assay [1] has as its system C. albicans (ATCC 24433). The format is cell-based, Candida albicans. As to conditions: end points after 48 hours, NI till x = no inhibition up to x; for MIC: Candida albicans, ATCC24433, RPMI 1640 medium with MOPS buffer, read-out: MIC against fungi, C. albicans (ATCC 24433); for MIC against fungi, C. albicans (ATCC 24433): RPMI 1640 medium with MOPS buffer. On the procedure: (§1) In vitro evaluation of antifungal activity was performed by determining the minimum inhibitory concentration (MIC). Anti-fungal susceptibility testing of these anti-fungal compounds was done by broth dilution method using RPMI 1640 medium with MOPS buffer. Known anti-fungal agents like fluconazole and amphotericin-B were used as positive control. End points were determined after 48 hours visually and by using spectrophotometer wherever necessary. Different dilutions were, tried and various sets of experiments performed.

Assay [2] deals with F. proliferatum (ATCC 10052). It counts as cell-based, Fusarium proliferatum. As to conditions: end points after 48 hours, NI till x = no inhibition up to x; for MIC: Fusarium proliferatum, ATCC10052, RPMI 1640 medium with MOPS buffer, read-out: MIC against fungi, F. proliferatum (ATCC 10052); for MIC against fungi, F. proliferatum (ATCC 10052): RPMI 1640 medium with MOPS buffer. The method, then:
as §1

The test system of assay [3] is A. niger (ATCC 16404). It counts as cell-based, Aspergillus niger. As to conditions: end points after 48 hours, NI till x = no inhibition up to x; for MIC: Aspergillus niger, ATCC16404, RPMI 1640 medium with MOPS buffer, read-out: MIC against fungi, A. niger (ATCC 16404); for MIC against fungi, A. niger (ATCC 16404): RPMI 1640 medium with MOPS buffer. On the procedure:
as §1

Each structure is given as a SMILES string. ≈ marks a conversion by molar mass, not a printed value. Bounds are passed on as bounds.

For `O=c1c2cc(CCCCOCc3ccccc3)sc2ncn1CC(O)(Cn1cncn1)c1ccc(F)cc1F` (stereo not drawn) [Compound 1-A01, 6-(4-Benzyloxybutyl)-3-[2-(2,4-difluorophenyl)-2-hydroxy-3-[1,2,4]triazol-1-ylpropyl]-thieno[2,3-d]pyrimidin-4(3H)-one], the minimum inhibitory concentration (MIC) (as a rule, the lowest concentration that inhibits growth of the organism) was 0.06 to 0.12 µg/mL (≈ 0.109 to 0.218 µM) in assay [1], greater than 4 µg/mL in assay [2] and greater than 4 µg/mL in assay [3].
For the compound `O=c1c2cc(CCCOCc3ccccc3)sc2ncn1CC(O)(Cn1cncn1)c1ccc(F)cc1F` (stereo not drawn) [Compound 1-A02, 6-(3-Benzyloxypropyl)-3-[2-(2,4-difluorophenyl)-2-hydroxy-3-[1,2,4]-triazol-1-ylpropyl]-thieno[2,3-d]pyrimidin-4(3H)-one], the minimum inhibitory concentration (MIC) was 0.06 to 0.12 µg/mL (≈ 0.112 to 0.223 µM) in assay [1], greater than 4 µg/mL in assay [2] and greater than 4 µg/mL in assay [3].
For `CCCCCCc1cc2c(=O)n(CC(O)(Cn3cncn3)c3ccc(F)cc3F)cnc2s1` (stereo not drawn) [Compound 1-A03, 3-[2-(2,4-Difluorophenyl)-2-hydroxy-3-[1,2,4]-triazol-1-yl-propyl]-6-(n-hexyl)-thieno[2,3-d]pyrimidin-4(3H)-one], the results for the MIC in assay [1], in assay [2] and in assay [3] were 0.03 to 0.06 µg/mL (≈ 0.0634 to 0.127 µM), greater than 2 µg/mL and greater than 2 µg/mL, respectively.
Regarding `CCCCCc1cc2c(=O)n(CC(O)(Cn3cncn3)c3ccc(F)cc3F)cnc2s1` (stereo not drawn) [Compound 1-A04, 3-[2-(2,4-Difluorophenyl)-2-hydroxy-3-[1,2,4]-triazol-1-yl-propyl]-6-n-pentylthieno[2,3-d]pyrimidin-4(3H)-one], the values for the minimum inhibitory concentration (MIC) in assay [1], in assay [2] and in assay [3] were 0.03 to 0.06 µg/mL (≈ 0.0653 to 0.131 µM), greater than 4 µg/mL and greater than 4 µg/mL, respectively.
With `CCCCc1c(CCC)sc2ncn(CC(O)(Cn3cncn3)c3ccc(F)cc3F)c(=O)c12` (stereo not drawn) [Compound 1-A05, 5-n-Butyl-3-[2-(2,4-difluorophenyl)-2-hydroxy-3-[1,2,4]-triazol-1-yl-propyl]-6-n-propyl-thieno[2,3-d]pyrimidin-4(3H)-one], the MIC in assay [1] was 2 to 4 µg/mL (≈ 4.1 to 8.2 µM); in assay [2], greater than 4 µg/mL; in assay [3], greater than 4 µg/mL.
As for `CCCCCCCc1cc2c(=O)n(CC(O)(Cn3cncn3)c3ccc(F)cc3F)cnc2s1` (stereo not drawn) [Compound 1-A06, 3-[2-(2,4-Difluorophenyl)-2-hydroxy-3-[1,2,4]-triazol-1-yl-propyl]-6-n-heptylthieno[2,3-d]pyrimidin-4(3H)-one], the MIC in assay [1] is 0.06 to 0.12 µg/mL (≈ 0.123 to 0.246 µM); in assay [2] it was greater than 2 µg/mL; in assay [3], greater than 2 µg/mL.
As to `O=c1c2c3c(sc2ncn1CC(O)(Cn1cncn1)c1ccc(F)cc1F)CCC3` (stereo not drawn) [Compound 1-A07, 3-[2-(2,4-Difluorophenyl)-2-hydroxy-3-[1,2,4]-triazol-1-yl-propyl]-3,5,6,7-tetrahydrocyclopenta[4,5]thieno[2,3-d]pyrimidin-4(3H)-one], the “MIC against fungi, C. albicans (ATCC 24433)” value (“MIC against fungi, C. albicans” for short) in assay [1] is 0.25 to 0.5 µg/mL. The “MIC against fungi, F. proliferatum (ATCC 10052)” value (“MIC against fungi … (ATCC 10052)” for short) in assay [2] is reported as “NI till 2 μg/ml”. For the same compound, in assay [3], the “MIC against fungi, A. niger (ATCC 16404)” value is reported as “NI till 2 μg/ml”.
For `CCCCCc1c(C)sc2ncn(CC(O)(Cn3cncn3)c3ccc(F)cc3F)c(=O)c12` (stereo not drawn) [Compound 1-A08, 3-[2-(2,4-Difluorophenyl)-2-hydroxy-3-[1,2,4]triazol-1-yl-propyl]-6-methyl-5-npentyl-thieno[2,3-d]pyrimidin-4(3H)-one], the “MIC against fungi, C. albicans” value in assay [1] is 2 to 4 µg/mL. In addition, the “MIC against fungi … (ATCC 10052)” value in assay [2] was “NI till 4 μg/ml”. For the same compound, the “MIC against fungi, A. niger (ATCC 16404)” value in assay [3] is given as “NI till 4 μg/ml”.
As for `O=c1c2c3c(sc2ncn1CC(O)(Cn1cncn1)c1ccc(F)cc1F)CCCC3` (stereo not drawn) [Compound 1-A09, 3-[2-(2,4-Difluorophenyl)-2-hydroxy-3-[1,2,4]-triazol-1-yl-propyl]-5,6,7,8-tetrahydrobenzothieno[2,3-d]pyrimidin-4(3H)-one], the minimal inhibitory concentration (MIC) was 0.25 to 0.5 µg/mL (≈ 0.564 to 1.13 µM) in assay [1], greater than 8 µg/mL in assay [2] and greater than 8 µg/mL in assay [3].
`CCCCCCc1sc2ncn(CC(O)(Cn3cncn3)c3ccc(F)cc3F)c(=O)c2c1C` (stereo not drawn) [Compound 1-A10, 3-[2-(2,4-Difluorophenyl)-2-hydroxy-3-[1,2,4]-triazol-1-yl-propyl]-6-n-hexyl-5-methyl-thieno[2,3-d]pyrimidin-4(3H)-one]: the MIC in assay [1] was 1 to 2 µg/mL (≈ 2.05 to 4.1 µM); in assay [2], greater than 2 µg/mL; in assay [3], greater than 2 µg/mL.
As to `CCCCCc1sc2ncn(CC(O)(Cn3cncn3)c3ccc(F)cc3F)c(=O)c2c1C` (stereo not drawn) [Compound 1-A11, 3-[2-(2,4-Difluorophenyl)-2-hydroxy-3-[1,2,4]triazol-1-yl-propyl]-5-methyl-6-npentyl-thieno[2,3-d]pyrimidin-4(3H)-one], the “MIC against fungi, C. albicans” value in assay [1] lay within 1 to 2 µg/mL. The “MIC against fungi … (ATCC 10052)” value in assay [2] is given as “NI till 2 μg/ml”. Besides, the “MIC against fungi, A. niger (ATCC 16404)” value in assay [3] was “NI till 2 μg/ml”.
For the compound `CC(=O)OCCCCCCCc1cc2c(=O)n(CC(O)(Cn3cncn3)c3ccc(F)cc3F)cnc2s1` (stereo not drawn) [Compound 1-A12, 6-(7-Acetoxyheptyl)-3-[2-(2,4-difluorophenyl)-2-hydroxy-3-[1,2,4]-triazol-1-ylpropyl]-thieno[2,3-d]pyrimidin-4(3H)-one], the MIC in assay [1] is 0.12 to 0.25 µg/mL (≈ 0.22 to 0.458 µM); in assay [2], greater than 2 µg/mL; in assay [3] it was greater than 2 µg/mL.
Take `O=c1c2cc(CCCCCCCO)sc2ncn1CC(O)(Cn1cncn1)c1ccc(F)cc1F` (stereo not drawn) [Compound 1-A13, 3-[2-(2,4-Difluorophenyl)-2-hydroxy-3-[1,2,4]triazol-1-yl-propyl]-6-(7-hydroxyheptyl)-thieno[2,3-d]pyrimidin-4(3H)-one]: the figures for the MIC in assay [1], in assay [2] and in assay [3] were 0.12 to 0.25 µg/mL (≈ 0.238 to 0.496 µM), greater than 16 µg/mL and greater than 16 µg/mL, respectively.
Consider `O=c1c2c(CCc3ccccc3)csc2ncn1CC(O)(Cn1cncn1)c1ccc(F)cc1F` (stereo not drawn) [Compound 1-A14, 3-[2-(2,4-Difluorophenyl)-2-hydroxy-3-[1,2,4]triazol-1-yl-propyl]-5(2-phenylethyl)-thieno[2,3-d]pyrimidin-4(3H)-one], for which the MIC is 0.5 to 1 µg/mL (≈ 1.01 to 2.03 µM) in assay [1], greater than 2 µg/mL in assay [2] and greater than 2 µg/mL in assay [3].
Consider `Cc1c(Cc2ccccc2)sc2ncn(CC(O)(Cn3cncn3)c3ccc(F)cc3F)c(=O)c12` (stereo not drawn) [Compound 1-A15, 6-Benzyl-3-[2-(2,4-difluorophenyl)-2-hydroxy-3-[1,2,4]-triazol-1-yl-propyl]-5-methyl-thieno[2,3-d]pyrimidin-4(3H)-one], for which the MIC in assay [1] was 1 to 2 µg/mL (≈ 2.03 to 4.05 µM); in assay [2], greater than 4 µg/mL; in assay [3] it was greater than 4 µg/mL.
As to `CCCCCCCCCCc1cc2c(=O)n(CC(O)(Cn3cncn3)c3ccc(F)cc3F)cnc2s1` (stereo not drawn) [Compound 1-A16, 6-n-Decyl-3-[2-(2,4-difluorophenyl)-2-hydroxy-3-[1,2,4]triazol-1-yl-propyl]thieno[2,3-d]pyrimidin-4(3H)-one], the MIC is 1 to 2 µg/mL (≈ 1.89 to 3.78 µM) in assay [1], greater than 2 µg/mL in assay [2] and greater than 2 µg/mL in assay [3].
With `CCCCCCCCCc1cc2c(=O)n(CC(O)(Cn3cncn3)c3ccc(F)cc3F)cnc2s1` (stereo not drawn) [Compound 1-A17, 3-[2-(2,4-Difluorophenyl)-2-hydroxy-3-[1,2,4]-triazol-1-yl-propyl]-6-n-nonylthieno[2,3-d]pyrimidin-4(3H)-one], the minimal inhibitory concentration (MIC) is 0.25 to 0.5 µg/mL (≈ 0.485 to 0.97 µM) in assay [1], greater than 4 µg/mL in assay [2] and greater than 4 µg/mL in assay [3].
In the case of `CCCc1cc2c(=O)n(CC(O)(Cn3cncn3)c3ccc(F)cc3F)cnc2s1` (stereo not drawn) [Compound 1-A18, 3-[2-(2,4-Difluorophenyl)-2-hydroxy-3-[1,2,4]-triazol-1-yl-propyl]-6-(n-propyl)-thieno[2,3-d]pyrimidin-4(3H)-one], the MIC in assay [1] was 0.06 to 0.12 µg/mL (≈ 0.139 to 0.278 µM); in assay [2], greater than 32 µg/mL; in assay [3], greater than 32 µg/mL.
In the case of `O=c1c2c3c(sc2ncn1CC(O)(Cn1cncn1)c1ccc(F)cc1F)CCCCCCCCCC3` (stereo not drawn) [Compound 1-A19, 3-[2-(2,4-Difluorophenyl)-2-hydroxy-3-[1,2,4]-triazol-1-yl-propyl]3,5,6,7,8,9,10,11,12,13,14-undecahydrocyclododeca[4,5]thieno[2,3-d]pyrimidin-4(3H)-one], the “MIC against fungi, C. albicans” value in assay [1] is reported as “NI till 2 μg/ml”. Besides, the “MIC against fungi … (ATCC 10052)” value in assay [2] is reported as “NI till 2 μg/ml”. Also, the “MIC against fungi, A. niger (ATCC 16404)” value in assay [3] was “NI till 2 μg/ml”.
With `CCc1cc2c(=O)n(CC(O)(Cn3cncn3)c3ccc(F)cc3F)cnc2s1` (stereo not drawn) [Compound 1-A22, 3-[2-(2,4-Difluorophenyl)-2-hydroxy-3-[1,2,4]triazol-1-yl-propyl]-6-ethylthieno[2,3-d]pyrimidin-4(3H)-one], the MIC in assay [1] is 0.06 to 0.12 µg/mL (≈ 0.144 to 0.287 µM); in assay [2] it was greater than 16 µg/mL; in assay [3] it was greater than 16 µg/mL.
As to `O=c1c2cc(CCCCO)sc2ncn1CC(O)(Cn1cncn1)c1ccc(F)cc1F` (stereo not drawn) [Compound 1-A23, 3-[2-(2,4-Difluorophenyl)-2-hydroxy-3-[1,2,4]-triazol-1-yl-propyl]-6-(4-hydroxybutyl)-thieno[2,3-d]pyrimidin-4(3H)-one], the minimal inhibitory concentration (MIC) in assay [1] is 1 to 2 µg/mL (≈ 2.17 to 4.33 µM); in assay [2], greater than 64 µg/mL; in assay [3], greater than 64 µg/mL.
Take `CC(C)(C)OC(=O)NCC(=O)OCCCCc1cc2c(=O)n(CC(O)(Cn3cncn3)c3ccc(F)cc3F)cnc2s1` (stereo not drawn) [Compound 1-A24, 3-[2-(2,4-Difluorophenyl)-2-hydroxy-3-[1,2,4]triazol-1-yl-propyl]-6-(4-N-Bocaminoacetyloxybutyl)-thieno[2,3-d]pyrimidin-4(3H)-one]: the “MIC against fungi, C. albicans” value in assay [1] was 0.5 to 1 µg/mL. Moreover, in assay [2], the “MIC against fungi … (ATCC 10052)” value was “NI till 16 μg/ml”. For the same compound, the “MIC against fungi, A. niger (ATCC 16404)” value in assay [3] was “NI till 16 μg/ml”.
